Paper PMC3215401 (Biosensors & bioelectronics, 2011)

Columns and labels:
Type in all cases: cell-based, human
[1] = target: PPARγ LBD, sensor 110PPARγ393 (UniProt P37231+P9WHJ3, V318L)
[2] = target: PPARγ LBD, sensor 110PPARγ383 (UniProt P37231+P9WHJ3, V318L)
[3] = target: PPARγ LBD, sensor 94_1GS_PPARγ_1GS_403 (UniProt P37231+P9WHJ3, V318L)
[4] = target: PPARγ LBD, sensor 100PPARγ383 (UniProt P37231+P9WHJ3, V318L)
[5] = target: PPARγ LBD, sensor 110PPARγ_3GS_403 (UniProt P37231+P9WHJ3, V318L)
[6] = target: PPARγ LBD, sensor 94PPARγ403 (UniProt P37231+P9WHJ3, V318L)
[7] = target: PPARγ LBD, sensor 110PPARγ_3GS_383 (UniProt P37231+P9WHJ3, V318L)

| Compound | effect on cell growth [1] | EC50 [2] | effect on cell growth [2] | effect on cell growth [3] | effect on cell growth [4] | EC50 [5] | IC50 ([2]; read-out: IC50 for antagonism) [µM] | effect on cell growth [6] | EC50 [3] [µM] | effect on cell growth [7] |
| --- | --- | --- | --- | --- | --- | --- | --- | --- | --- | --- |
| CCCCC/C=C/C=C1/C(=O)C=C[C@@H]1C/C=C\CCCC(=O)O [15D-PGJ2, 15-deoxy-Δ^12,14-Prostaglandin J2] | almost no effect | could not be calculated | didn't induce a significant cell growth signal | strongest observed response | significant response | could not be calculated | – | – | – | – |
| C[C@]12CC[C@@H]3c4ccc(O)cc4CC[C@H]3[C@@H]1CC[C@@H]2O [E2, 17β-estradiol] | – | – | no significant effect | – | – | – | – | – | – | – |
| O=C(Nc1ccccc1)c1cc([N+](=O)[O-])ccc1Cl [GW9662] | increased cell growth substantially | – | inhibited cell growth | – | inhibitory effect | 1.1 ± 0.2 µM | 1.8 ± 1.2 | strong positive responses | 0.5 ± 0.1 | weak positive response |
